Assay results: paper PMC10792649 (Current Research in Microbial Sciences, 2023)

Molecular target: OROV endonuclease (N-terminal endonuclease domain of OROV RNA-polymerase) (Oropouche virus, UniProt A0A0B5CUJ1)
Experiment: fluorescence assay, cleavage of labelled DNA FAM-TCTCTAGCAGTGGCGCC-TAM
Assay type: biochemical

COc1cc2[nH]c3c(OC)c(OC)ccc3c(=O)c2c(OC)c1OC [FAC21, 1,2,3,5,6-Pentamethoxy-9-(10H)-acridinone]
IC50: 1.4 ± 0.3 µM
